Assay results taken from EP1222183B1, “BENZOPYRAN DERIVATIVES” (priority 1999, dated 2001).

Key:
[1] = tested on: prostatic urethral pressure; assay: Inhibition of urethral contractions induced by noradrenaline injection in anaesthetised dogs after i.v. administration; assay type: in vivo; settings: dog; for ED50: Canis lupus familiaris, iv, dose inhibiting by 50% the urethral contractions induced by noradrenaline, read-out: UC ID50; for DBP/UC: ratio between the active doses (DBP ED25 / UC ID50)
Description: The experiments were performed according to the method of Imagawa J. et al., J. Pharmacol. Methods 22, 103-111, 1989, with substantial modifications, as follows: adult male beagle dogs, weighing 8-10 kg, were anaesthetised with pentobarbital sodium (30 mg/kg i.v. and 2 mg/kg/h i.v.), intubated and spontaneously ventilated with room air. In order to monitor systemic blood pressure (BP), a polyethylene (PE) catheter was introduced into the aortic arch through the left femoral artery. A collateral of the left femoral vein was cannulated for infusion of anaesthetic, and the right femoral vein was cannulated for administration of compounds. For intra-arterial (i.a.) injection of noradrenaline (NA), a PE catheter was introduced into the lower portion of the abdominal aorta via the right external iliac artery. Through such procedure, NA was selectively distributed to the lower urinary tract. A paramedian vertical suprapubic incision extending from the base of the pelvis to the mid-abdominal region was made and the bladder and prostate were exposed. The bladder was manually emptied with a syringe. Prostatic urethral pressure was monitored with a Mikro-tip cathe[…]) introduced into the bladder via the external urethral meatus, and withdrawn until the pressure transducer was positioned in the prostatic region of the urethra. A ligature was secured between the neck of the bladder and urethra to isolate the response of the latter and to avoid any interaction with the bladder. Another ligature was put around the Mikro-tip catheter at the external meatus, to secure the catheter itself. […] In order to compare the effects of the administered compound, dose/response curves (log dose transformation) were constructed by computing, at the peak effect, the percent decrease in diastolic blood pressure and the percent inhibition of the increase in urethral pressure induced by NA.

diastolic blood pressure = assay: Effect on diastolic blood pressure in anaesthetised dogs after i.v. administration; assay type: in vivo; settings: dog, dose lowering diastolic blood pressure by 25%
Description: The experiments were performed according to the method of Imagawa J. et al., J. Pharmacol. Methods 22, 103-111, 1989, with substantial modifications, as follows: adult male beagle dogs, weighing 8-10 kg, were anaesthetised with pentobarbital sodium (30 mg/kg i.v. and 2 mg/kg/h i.v.), intubated and spontaneously ventilated with room air. In order to monitor systemic blood pressure (BP), a polyethylene (PE) catheter was introduced into the aortic arch through the left femoral artery. A collateral of the left femoral vein was cannulated for infusion of anaesthetic, and the right femoral vein was cannulated for administration of compounds. For intra-arterial (i.a.) injection of noradrenaline (NA), a PE catheter was introduced into the lower portion of the abdominal aorta via the right external iliac artery. Through such procedure, NA was selectively distributed to the lower urinary tract. A paramedian vertical suprapubic incision extending from the base of the pelvis to the mid-abdominal region was made and the bladder and prostate were exposed. The bladder was manually emptied with a syringe. Prostatic urethral pressure was monitored with a Mikro-tip catheter (5F) introduced into the bladder via the external urethral meatus, and withdrawn until the pressure transducer was positioned in the prostatic region of the urethra. A ligature was secured between the neck of the bladder and urethra to isolate the response of the latter and to avoid any interaction with the bladder. Another ligature was put around the Mikro-tip catheter at the external meatus, to secure the catheter itself. After a stabilising period following the surgical procedure (30 minutes), in which arterial and prostatic urethral pressure were continuously monitored as basal values, i.a. administration of NA was made at intervals of 20 minutes. The doses of NA chosen were such to produce an increase of at least 100% in urethral pressure. The test compounds were administered i.v. in a cumulative manner with intervals of 15-20 minutes between administrations. I.a. injections of NA were repeated 5 minutes after every dosing of test compound with intervals of about 10 minutes between stimulations. In order to compare the effects of the administered compound, dose/response curves (log dose transformation) were constructed by computing, at the peak effect, the percent decrease in diastolic blood pressure and the percent inhibition of the increase in urethral pressure induced by NA.

[2] = molecular target: T1, human 5-HT1A-serotoninergic receptor (Homo sapiens, UniProt P08908); assay: Radioligand binding ([3H]8-OH-DPAT) to cloned 5-HT1A receptor in HeLa cell membranes; settings: cloned human receptor in HeLa cells, 1.2 nM [3H]8-OH-DPAT, 30 minutes at 30°C; read-out: Affinity (Ki) 5-HT1A
T1 construct: expressed in transfected cells; host or cells: HeLa (human), stably transfected
T1 sequence (P08908 1-422): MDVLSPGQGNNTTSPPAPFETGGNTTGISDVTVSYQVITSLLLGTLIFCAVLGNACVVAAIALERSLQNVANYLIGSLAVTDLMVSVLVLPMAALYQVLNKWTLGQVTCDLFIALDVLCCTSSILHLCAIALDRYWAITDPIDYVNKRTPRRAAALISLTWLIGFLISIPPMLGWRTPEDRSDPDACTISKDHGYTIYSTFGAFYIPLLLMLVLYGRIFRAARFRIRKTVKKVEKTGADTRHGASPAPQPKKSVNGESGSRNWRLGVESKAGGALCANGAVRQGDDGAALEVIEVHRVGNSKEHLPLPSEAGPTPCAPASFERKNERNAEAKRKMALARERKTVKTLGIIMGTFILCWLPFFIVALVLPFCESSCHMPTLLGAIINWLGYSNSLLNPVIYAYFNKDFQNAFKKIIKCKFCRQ

[3] = tested on: prostatic urethral pressure; settings: dog, i.v., dose inhibiting by 50% the urethral contractions induced by noradrenaline; data from Leonardi A. et al. 1997; cited from earlier work

Ki [2] [nM]	SMILES	ED50 [1] [mg/kg]	DBP/UC [1]	DBP ED25 (diastolic blood pressure) [mg/kg]	UC ID50 [3] [mg/kg]
–	COc1ccc(Cl)cc1N1CCN(CCCNC(=O)c2cccc3c(=O)c(C)c(C(N)=O)oc23)CC1 [Example 1, 2-Carbamoyl-8-{3-[4-(5-chloro-2-methoxyphenyl)-1-piperazinyl]-propylcarbamoyl}-3-methyl-4-oxo-4H-1-benzopyran]	0.0118	234.7	2.769	–
–	CCOC(=O)c1oc2c(C(=O)NCCCN3CCN(c4cc(Cl)ccc4OC)CC3)cccc2c(=O)c1C [Example 4, 2-Ethoxycarbonyl-8-{3-[4-(5-chloro-2-methoxyphenyl)-1-piperazinyl]-propylcarbamoyl}-3-methyl-4-oxo-4H-1-benzopyran]	0.0023	71.0	0.1633	–
> 1000	COc1ccc(OCC(F)(F)F)cc1N1CCN(CCCNC(=O)c2cccc3c(=O)c(C)c(C(N)=O)oc23)CC1 [Example 9, 2-Carbamoyl-8-<3-{4-[2-methoxy-5-(2,2,2-trifluoroethoxy)-phenyl]-1-piperazinyl}-propylcarbamoyl>-3-methyl-4-oxo-4H-1-benzopyran]	–	–	–	–
–	Cc1c(-c2ccccc2)oc2c(C(=O)NCCCN3CCN(c4ccccc4OCC(F)(F)F)CC3)cccc2c1=O [Example 15, 8-<3-{4-[2-(2,2,2-Trifluoroethoxy)-phenyl]-1-piperazinyl}propylcarbamoyl>-3-methyl-4-oxo-2-phenyl-4H-1-benzopyran]	0.0049	612	3.001	–
–	COc1ccc(C#N)cc1N1CCN(CCCNC(=O)c2cccc3c(=O)c(C)c(-c4ccccc4)oc23)CC1 [Example 18, 8-{3-[4-(5-Cyano-2-methoxyphenyl)-1-piperazinyl]-propylcarbamoyl}-3-methyl-4-oxo-2-phenyl-4H-1-benzopyran]	0.0341	38.05	1.2976	–
–	Cc1c(-c2ccccc2)oc2c(C(=O)NCCCN3CCN(c4cc(Cl)ccc4OCC(F)(F)F)CC3)cccc2c1=O [Example 22, 8-<3-{4-[5-Chloro-2-(2,2,2-trifluoroethoxy)-phenyl]-1-piperazinyl}-propylcarbamoyl>-3-methyl-4-oxo-2-phenyl-4H-1-benzopyran]	0.0195	64.92	1.266	–
–	COc1cc2nc(N3CCN(C(=O)C4CCCO4)CC3)nc(N)c2cc1OC (centres unmarked) [Terazosin, terazosin]	–	–	–	0.0206
